Laboratory results published in publication PMC9010763 (The Journal of Biological Chemistry, 2022).
Read-outs that look alike come from different tables or passages of the source. Each block holds one molecule with its values, some of them ahead of it.

Key:
Type in all cases: biochemical
[1] = target: T1, SLC35B1 (Homo sapiens, UniProt P78383); test: [α^[…]]ATP uptake competition and counter-exchange, purified protein in PC-liposomes
T1 construct: isoform 1, C-terminal GFP fusion (hSLC35B1-GFP)
T1 sequence (P78383 1-322): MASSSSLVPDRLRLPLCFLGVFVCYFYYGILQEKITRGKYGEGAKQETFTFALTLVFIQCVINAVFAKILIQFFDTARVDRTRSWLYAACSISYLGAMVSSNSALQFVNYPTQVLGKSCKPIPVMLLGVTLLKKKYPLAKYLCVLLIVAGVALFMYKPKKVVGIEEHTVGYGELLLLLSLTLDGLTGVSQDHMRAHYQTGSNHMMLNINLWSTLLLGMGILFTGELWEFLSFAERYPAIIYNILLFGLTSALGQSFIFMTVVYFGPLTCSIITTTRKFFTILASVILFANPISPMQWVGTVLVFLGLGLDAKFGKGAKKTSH

[2] = target: T1, SLC35B1; test: inhibition of [α^[…]]ATP uptake at […], purified protein in PC-liposomes; conditions: read-out: % inhibition at 1 mM
[3] = target: T1, SLC35B1; test: inhibition of [α^[…]]ATP uptake at […]; counter-exchange and efflux, purified protein in PC-liposomes; conditions: read-out: % inhibition at 1 mM
[4] = target: T1, SLC35B1; test: inhibition of [α^[…]]ATP uptake at […]; counter-exchange, purified protein in PC-liposomes; conditions: read-out: % inhibition at 1 mM

- Ki ([1]; read-out: Ki): 56.1 µM
Compound: Nc1ncnc2c1ncn2[C@@H]1O[C@H](COP(=O)(O)OP(=O)(O)O)[C@@H](O)[C@H]1O [ADP]

Compound: Nc1ncnc2c1ncn2[C@@H]1O[C@H](COP(=O)(O)OP(=O)(O)OP(O)(O)=S)[C@@H](O)[C@H]1O [ATPɣ[-S]]
- inhibition at 1000 µM [2]: > 85%

- inhibition at 1000 µM [3]: 50 to 60%
Compound: Nc1ccn([C@@H]2O[C@H](COP(=O)(O)OP(=O)(O)OP(=O)(O)O)[C@@H](O)[C@H]2O)c(=O)n1 [CTP]

- inhibition at 1000 µM [3]: 50 to 60%
Compound: Nc1nc2c(ncn2[C@@H]2O[C@H](COP(=O)(O)OP(=O)(O)O)[C@@H](O)[C@H]2O)c(=O)[nH]1 [GDP]

- Ki ([1]; read-out: Ki): 275 µM
Compound: Nc1nc2c(ncn2[C@@H]2O[C@H](COP(=O)(O)OP(=O)(O)OP(=O)(O)O)[C@@H](O)[C@H]2O)c(=O)[nH]1 [GTP]

Compound: O=c1ccn([C@@H]2O[C@H](COP(=O)(O)OP(=O)(O)O)[C@@H](O)[C@H]2O)c(=O)[nH]1 [UDP]
- Ki [1]: 83 µM

- inhibition at 1000 µM [3]: 70 to 85%
Compound: O=c1ccn([C@@H]2O[C@H](COP(=O)(O)OP(=O)(O)OP(=O)(O)O)[C@@H](O)[C@H]2O)c(=O)[nH]1 [UTP]

- inhibition at 1000 µM [4]: > 85%
Compound: Nc1ncnc2c1ncn2[C@H]1C[C@H](O)[C@@H](COP(=O)(O)OP(=O)(O)OP(=O)(O)O)O1 [dATP]
